Several values for one entry are separate records, joined by “and”; a condition that tells them apart may be missing. Identical values can stand only once. Like-named read-outs stand apart in the source and are kept apart here. Blank lines part the entries; values can stand above or below the compound they belong to.
Tests used:
OEP21 [1] = target: T1, OEP21 (Pisum sativum, UniProt Q9SM57); assay: CD-detected thermal melting of OEP21 in presence of metabolites; assay type: binding, garden pea; set-up: made in house; settings: for Melting point: ED Fig. 4a, OEP21 with 0.5 mM metabolite, CD at 215 nm, Apo 58.5; for raw CD / rel CD: 500 uM
OEP21 [2] = target: T1, OEP21; assay: Isothermal titration calorimetry (ITC) of OEP21 with metabolites; assay type: binding, garden pea; set-up: made in house; settings: for fold increase in Kd: individual determination KD1; for fold increase in Kd / fold increase in Kd, mean values: relative to ATP pH7; for binding affinity for OEP21 (in words): ITC or FP
[3] = ITC of ATP, GAP or phosphate with magnesium; assay type: binding; settings: 10 mM HEPES pH7.0, 20 mM NaCl, read-out: KD for Mg^2+
Procedure: ITC experiments were performed with a MicroCal PEAQ-ITC instrument (Malvern Panalytical) at 25 °C in 10 mM HEPES pH 7.0, 20 mM NaCl, 0.5 mM EDTA, 1 mM DTT, 50 mM LDAO. […] Curve fitting and data analysis were done with the Malvern PEAQ-ITC software.
(a) (left) 2D-[^15N,^1H]-TROSY NMR spectra of 400 µM ^2H,^15N-labeled OmpX in LDAO micelles in 20 mM sodium phosphate, pH6.0, 50 mM NaCl, 0.5 mM EDTA and the indicated concentrations of D-GAP at 30 °C and 1.2 GHz magnetic field. (right) 2D-projections along the ^1H dimension of the 2D-spectra shown on (left). […] (right) Relative NMR peak intensities derived from the data in (left) and (middle). Buffer: 10 mM Na-phosphate pH7.0, 20 mM NaCl, 7% (v/v) D2O. […] (right) 150 mM MgCl2 was titrated into 15 mM potassium phosphate (Pi). Buffer conditions for all experiments were: 10 mM HEPES pH7.0, 20 mM NaCl.

OEP21 wt [4] = target: T2, OEP21 wt (Pisum sativum, UniProt Q9SM57); assay: SEC metabolite translocation assay with OEP21 WT proteoliposomes;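 as to all read-outs here: control is liposomes reconstituted without protein, prepared alongside. Molecule content inside liposomes measured after Triton X-100 disruption. PD10 SEC runs done with or without ATP and/or MgCl2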; assay type: biochemical, garden pea; settings: for Relative content (% of mean Control): Fig. 4f, WT proteoliposomes, molecules of increasing molecular weight; for passage through the OEP21 channel (in words): proteoliposomes, SEC, deadtime ~4 min
T2 construct: made in house

OEP21 wt [5] = target: T2, OEP21 wt; assay: FP competition with preformed MANT-ATP/OEP21-WT complex; assay type: binding, garden pea; settings: read-out: IC50 (dissociation of MANT-ATP); OEP21-WT; 1 µM MANT-ATP, 1 µM protein
Procedure: (§1) FP assays were performed on a spectrofluorometer FP-8300 (Jasco) equipped with a water bath cooling system MCM-100 (Jasco). […] A buffer containing no EDTA was used when MgCl2 was present. […] KD values were derived by fitting the data to a one-site binding model. […] All FP experiments were performed as triplicates.

OEP21 wt [6] = target: T2, OEP21 wt; assay: NMR titrations (2D-[15N,1H]-TROSY) of OEP21 with metabolites; assay type: binding, garden pea
OEP21 [7] = target: T1, OEP21; assay: Amide hydrogen exchange NMR (CLEANEX) of OEP21 L5; set-up: made in house; species or system garden pea; settings: 2 mM ATP or 5 mM GAP; 303 K, pH 6.0
OEP21 [8] = target: T1, OEP21; assay: Trypsin cleavage of recombinant OEP21 in liposomes; set-up: made in house; species or system garden pea; settings: 10 µM OEP21 in liposomes; 5 mM metabolite
Procedure: Sample aliquots were quenched by addition of 1 mM PMSF at the indicated time points and were analyzed by SDS–PAGE.

OEP21 wt [9] = target: T2, OEP21 wt; assay: Fluorescence polarization (FP) binding of MANT-ATP (or MANT-GMPPNP) to OEP21-WT, also at varied NaCl and MgCl2; set-up: species or system garden pea; settings: FP
Procedure: as §1

[10] = test system: OEP21 variants (single point mutations, ΔL5); assay: Fluorescence polarization binding of MANT-ATP to OEP21 variants;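 also: KD obtained by fitting fluorescence polarization data to a one-site binding model, each experiment run in triplicate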; set-up: species or system garden pea; settings: FP with MANT-ATP, Fig. 3e; 14 point variants and ΔL5

Melting point (OEP21 [1]): 63.71 ｡C
fold increase in Kd (OEP21 [2]): 1.35
fold increase in Kd, mean values (OEP21 [2]): 1.35
Compound: Nc1ccn([C@@H]2O[C@H](COP(=O)(O)OP(=O)(O)OP(=O)(O)O)[C@@H](O)[C@H]2O)c(=O)n1 [CTP]

Melting point (OEP21 [1]): 58.78 ｡C
Compound: O=C(O)[C@H](O)COP(=O)(O)O [3PGA]

Kd ([3]; listed as Pi): 9 ± 1 mM
Kd [3]: ~9 mM
Relative content (% of mean Control) (OEP21 wt [4]; Mean): 13.1637 % of mean Control
IC50 (OEP21 wt [5]): ~10 mM
Kd (OEP21 wt [6]; individual determinations KD1-KD12, read-out: Kd): 8.73 mM and 3.66 mM and 15 mM and 9.02 mM and 8.71 mM and 10.4 mM and 5.02 mM and 3.5 mM and 11 mM and 15.9 mM and 20.7 mM and 4.68 mM
Kd (OEP21 wt [6]; mean, read-out: Kd, mean values): 9.7 mM
Compound: O=P(O)(O)O [Phosphate]
Relative content (% of mean Control) (OEP21 wt [4]; single replicates): 11.8165 % of mean Control and 12.9577 % of mean Control and 14.7171 % of mean Control

Relative content (% of mean Control) (OEP21 wt [4]; Mean): 33.6575 % of mean Control
Melting point (OEP21 [1]): 58.83 ｡C
Compound: NC(=O)C1=CN([C@@H]2O[C@H](COP(=O)(O)OP(=O)(O)OC[C@H]3O[C@@H](n4cnc5c(N)ncnc54)[C@H](O)[C@@H]3O)[C@@H](O)[C@H]2O)C=CC1 [NADH]
Relative content (% of mean Control) (OEP21 wt [4]; single replicates): 33.3345 % of mean Control and 33.6928 % of mean Control and 33.9453 % of mean Control

Melting point (OEP21 [1]): 63.58 ｡C
fold increase in Kd (OEP21 [2]): 2.55
fold increase in Kd, mean values (OEP21 [2]): 2.55
Compound: O=c1ccn([C@@H]2O[C@H](COP(=O)(O)OP(=O)(O)OP(=O)(O)O)[C@@H](O)[C@H]2O)c(=O)[nH]1 [UTP]

Relative content (% of mean Control) (OEP21 wt [4]; Mean): 46.1734 % of mean Control
Compound: Cc1cc2nc3c(=O)[nH]c(=O)nc-3n(C[C@H](O)[C@H](O)[C@H](O)COP(=O)(O)OP(=O)(O)OC[C@H]3O[C@@H](n4cnc5c(N)ncnc54)[C@H](O)[C@@H]3O)c2cc1C [FAD]
Relative content (% of mean Control) (OEP21 wt [4]; single replicates): 47.6939 % of mean Control and 45.5112 % of mean Control and 45.315 % of mean Control

Relative content (% of mean Control) (OEP21 wt [4]; Mean): 99.2057 % of mean Control
passage through the OEP21 channel (in words) (OEP21 wt [4]): cannot pass
Compound: Vitamin B12
Relative content (% of mean Control) (OEP21 wt [4]; single replicates): 105.56 % of mean Control and 96.0286 % of mean Control (2×)

passage through the OEP21 channel (in words) (OEP21 wt [4]): cannot pass
Compound: lysozyme: the ~14-kDa protein lysozyme [reference compound]

Melting point (OEP21 [1]): 58.37 ｡C
Compound: C=C(OP(=O)(O)O)C(=O)O [PEP]

Melting point (OEP21 [1]): 59.2 ｡C
binding affinity for OEP21 (in words) (OEP21 [2]; Fig. 3c): markedly reduced
fold increase in Kd (OEP21 [2]): 10.8
fold increase in Kd, mean values (OEP21 [2]): 10.8
Compound: Nc1ncnc2c1ncn2[C@@H]1O[C@H](COP(=O)(O)OP(=O)(O)O)[C@@H](O)[C@H]1O [ADP]

Compound: O=S1(=O)OC(c2cc(Br)c(O)c(Br)c2)(c2cc(Br)c(O)c(Br)c2)c2ccccc21 [Bromophenol Blue, reference compound]
Relative content (% of mean Control) (OEP21 wt [4]; Mean): 44.3038 % of mean Control
Relative content (% of mean Control) (OEP21 wt [4]; single replicates): 45.5696 % of mean Control and 43.6709 % of mean Control (2×)
passage through the OEP21 channel (in words) (OEP21 wt [4]): lower translocation efficiency

Relative content (% of mean Control) (OEP21 wt [4]; Mean): 30.937 % of mean Control
Melting point (OEP21 [1]): 60.17 ｡C
Compound: NC(=O)C1=CN([C@@H]2O[C@H](COP(=O)(O)OP(=O)(O)OC[C@H]3O[C@@H](n4cnc5c(N)ncnc54)[C@H](OP(=O)(O)O)[C@@H]3O)[C@@H](O)[C@H]2O)C=CC1 [NADPH]
Relative content (% of mean Control) (OEP21 wt [4]; single replicates): 31.31 % of mean Control and 32.4982 % of mean Control and 29.0027 % of mean Control

Melting point (OEP21 [1]): 59.12 ｡C
binding affinity for OEP21 (in words) (OEP21 [2]; Fig. 3c): no binding could be detected
Fold increase in KD (OEP21 [2]; Fig. 3c, n.b. = no binding could be detected by ITC): n.b.
fold increase in Kd, mean values (OEP21 [2]): 0
Compound: Nc1ncnc2c1ncn2[C@@H]1O[C@H](COP(=O)(O)O)[C@@H](O)[C@H]1O [AMP]

Compound: Nc1ncnc2c1ncn2C1OC(COP(=O)(O)OP(=O)(O)OP(=O)(O)O)C(O)C1O (centres unmarked) [ATP]
amide hydrogen exchange rates in L5 in the complex (in words) (OEP21 [7]): reduced
Kd [3]: 0.05 mM and 0.054 mM
effect on trypsin digestion of L5 (in words) (OEP21 [8]): slightly protected L5 from proteolytic digestion
passage through the OEP21 channel (in words) (OEP21 wt [4]): passed through the channel
raw CD (OEP21 [1]; 21 °C): -26.3487
raw CD (OEP21 [1]; 58 °C): -23.5155
raw CD (OEP21 [1]; 63 °C): -19.1017
raw CD (OEP21 [1]; 66 °C): -5.813
rel CD (OEP21 [1]; 66 °C): 0.1482
rel CD (OEP21 [1]; 68 °C): 0.08235
raw CD (OEP21 [1]; 69 °C): -3.142
raw CD (OEP21 [1]; 70 °C): -4.096
raw CD (OEP21 [1]; 71 °C): -2.84
raw CD (OEP21 [1]; 71.5 °C): -3.658
raw CD (OEP21 [1]; 74 °C): -2.072
rel CD (OEP21 [1]; 76 °C): 0.01626
raw CD (OEP21 [1]; 77 °C): -2.742
rel CD (OEP21 [1]; 77 °C): 0.01867
raw CD (OEP21 [1]; 79 °C): -1.936
raw CD (OEP21 [1]; 79.5 °C): -2.866
raw CD (OEP21 [1]; 80 °C): -3
raw CD (OEP21 [1]; 82 °C): -1.776
rel CD (OEP21 [1]; 82 °C): -0.02212
raw CD (OEP21 [1]; 83.5 °C): -1.529
raw CD (OEP21 [1]; 84 °C): -3.442
rel CD (OEP21 [1]; 87 °C): -0.01175
rel CD (OEP21 [1]; 87.5 °C): 0.006103
rel CD (OEP21 [1]; 88 °C): 0.001624
raw CD (OEP21 [1]; 88.5 °C): -3.139
rel CD (OEP21 [1]; 90 °C): -0.0159
rel CD (OEP21 [1]; 90.5 °C): -0.01305
rel CD (OEP21 [1]; 92 °C): 0.001685
rel CD (OEP21 [1]; 93 °C): -0.01165
raw CD (OEP21 [1]; 95 °C): -2.644
rel CD (OEP21 [1]; 97 °C): -0.003556
raw CD (OEP21 [1]; 98 °C): -2.053
raw CD (OEP21 [1]; 100 °C): -2.629
Melting point (OEP21 [1]): 63.08 ｡C
binding stoichiometry n (OEP21 [2]; ITC, Fig. 3a): 1.14 ± 0.16
decrease in affinity (OEP21 wt [9]; 50 mM MgCl2 versus 0): ~50 fold
drop in binding affinity (OEP21 wt [9]; 2 M NaCl versus 0): ~120 fold
deviation of KD of OEP21 variants from the wild-type value [10]: ≤ 50%

Melting point (OEP21 [1]): 66.48 ｡C
fold increase in Kd (OEP21 [2]): 0.59
fold increase in Kd, mean values (OEP21 [2]): 0.59
Compound: Nc1nc2c(ncn2[C@@H]2O[C@H](COP(=O)(O)OP(=O)(O)OP(=O)(O)O)[C@@H](O)[C@H]2O)c(=O)[nH]1 [GTP]
